Legend:
[1] = tested on: brain lesions associated with progression of MS; test: Study of sixty patients with chronic multiple sclerosis: MRI brain lesions after one year of treatment; assay type: in vivo; conditions: seven days once per month for one year, MRI at month 12
Protocol: A study of sixty patients with chronic multiple sclerosis is undertaken. Each patient is first examined for normal hepatic, renal, and bone marrow functioning to establish baseline values. [table] Each of the patients in Groups 2-4 and 8-10 is treated with 2-CdA dissolved in sterile preservative-free isotonic saline, whereas patients in Groups 1 and 5-7 receive a placebo (saline). The 2-CdA is administered intravenously for a total of seven days, once per month for a total of one year. Each of the patients in Groups 5-10 is treated with natalizumab, whereas Groups 1-4 received placebo (saline). The natalizumab is administered intravenously for a total of seven days, once per month for a total of one year, with the treatment being on the same day as 2-CdA treatment. Patients are monitored to determine whether there is any progression or improvement of brain lesions associated with progression of MS. All patients have a baseline and MRI study (brain or spinal cord, according to localization of the lesions) at month 12.

[2] = tested on: MRI-measured brain lesions; conditions: MS patients, cited from earlier work

Row | Molecule | change in brain lesions (MRI) ([1]; Group 5: natalizumab 1 mg/kg i.v.) | change in brain lesions (MRI) ([1]; Group 6: natalizumab 3 mg/kg i.v.) | change in brain lesions (MRI) ([1]; Group 7: natalizumab 6 mg/kg i.v.) | MRI-measured brain lesions ([2]; Phase II study as printed (Rice et al., 2000)) | adverse effects ([2]; observed with the highest doses) | change in brain lesions (MRI) ([1]; Group 2: 2-CdA 0.25 mg/kg i.v.) | change in brain lesions (MRI) ([1]; Group 3: 2-CdA 0.5 mg/kg i.v.) | change in brain lesions (MRI) ([1]; Group 4: 2-CdA 1 mg/kg i.v.)
1 | natalizumab: anti-alpha-4 integrin antibody used as the second agent in Example 1 | increase in brain lesions | decrease in brain lesions | decrease in brain lesions |  |  |  |  | 
2 | Nc1nc(Cl)nc2c1ncn2[C@H]1C[C@H](O)[C@@H](CO)O1 [2-CdA, 2-chloro-2′-deoxyadenosine] |  |  |  | significantly reduced MRI-measured brain lesions | increased incidence of infections related to compromised immune function or myelosuppression | increase in brain lesions | increase in brain lesions | decrease in brain lesions

Source: patent publication US20100129353A1, “COMBINATION AND TREATMENT FOR MULTIPLE SCLEROSIS” (Laboratoires Serono S.A., priority 2004, published 2010)
